From US20060069132A1, “Azolecarboxamide herbicides” (priority 2004, published 2006)
Where two headings read alike, the source gives them in different places.

How the values were obtained:
morningglory = experiment: Test C pre-/postemergence herbicide test; type: in vivo, Ipomoea coccinea; set-up: key to Plant response rating, Morningglory: 0 = no effect, 100 = complete control
Summary of the method: (§1)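 Emerged plants at the 1- to 4-leaf stage (2–18 cm), or freshly planted seeds, received test chemicals in a non-phytotoxic solvent mixture with surfactant. Response was visually scored against controls after 12 to 14 days in the greenhouse, on a 0 (no effect) to 100 (complete control) scale.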

dallisgrass = experiment: Test E pre-/postemergence herbicide test; type: in vivo, Paspalum dilatatum
Summary of the method: (§2)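 Greenhouse whole-plant test: compounds formulated in a non-phytotoxic solvent mixture with surfactant were applied preemergence to planted seeds and, concurrently, postemergence to plants 2 to 18 cm tall. Response was scored visually after 12 to 14 days, 0 meaning no effect and 100 complete control.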

giant foxtail = experiment: Test A pre-/postemergence herbicide test; type: in vivo, Setaria faberi; settings: for pest or weed control at 500 g/ha / pest or weed control at 2000 g/ha: Setaria faberi, 240 h
Summary of the method: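 Both application timings were run together: directed soil spray over freshly planted seeds in sandy loam, and runoff spray onto 2–10 cm seedlings. Evaluation after ~10 days in greenhouse used a 0–100 visual scale versus untreated controls.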

barnyardgrass = experiment: Test E pre-/postemergence herbicide test; type: in vivo, Echinochloa crus-galli
Summary of the method: as §2

common ragweed = experiment: Test C pre-/postemergence herbicide test; type: in vivo, Ambrosia elatior; set-up: key to Plant response rating, Ragweed: 0 = no effect, 100 = complete control
Summary of the method: as §1

chickweed = experiment: Test C postemergence herbicide test; type: in vivo, Stellaria media
Method: At the same time, plants selected from these crop and weed species and also winter barley (Hordeum vulgare L.), blackgrass (Alopecurus myosuroides Huds.), canarygrass (Phalaris minor Retz.), chickweed (Stellaria media (L.) Vill.), downy bromegrass (Bromus tectorum L.), green foxtail (Setaria viridis (L.) Beauv.), Italian ryegrass (Lolium multiflorum Lam.), wheat (Triticum aestivum L.), wild oat (Avenafatua L.) and windgrass (Apera spica-venti (L.) Beauv.) were treated with postemergence applications of some of the test chemicals formulated in the same manner. Plants ranged in height from 2 to 18 cm (1- to 4-leaf stage) for postemergence treatments. Plant species in the flooded paddy test consisted of rice (Oryza sativa), smallflower umbrella sedge (Cyperus difformis L.), ducksalad (Heteranthera limosa (Sw.) Willd.) and barnyardgrass (Echinochloa crus-galli (L.) Beauv.) grown to the 2-leaf stage for testing. Treated plants and controls were maintained in a greenhouse for 12 to 14 days, after which time all species were compared to controls and visually evaluated. Plant response ratings, summarized in Table C, are based on a scale of 0 to 100 where 0 is no effect and 100 is complete control. A dash (-) response means no test result.

[1] = Preemergence, 500 g ai/ha, scale 0 to 100, 0 no effect, 100 complete control
[2] = Postemergence, 250 g ai/ha, scale 0 to 100
[3] = Preemergence, 62 g ai/ha, scale 0 to 100
[4] = Preemergence, 125 g ai/ha, scale 0 (no effect) to 100 (complete control)
[5] = Preemergence, 250 g ai/ha, scale 0 (no effect) to 100 (complete control)
[6] = Preemergence, 500 g ai/ha, scale 0 (no effect) to 100 (complete control)
[7] = postemergence, 125 g ai/ha, scale 0 to 100
[8] = postemergence, 62 g ai/ha, scale 0 to 100
[9] = 31 g ai/ha, preemergence, scale 0 to 100
[10] = postemergence, 31 g ai/ha, scale 0 to 100
[11] = Postemergence, 125 g ai/ha, scale 0 to 100, 0 no effect, 100 complete control
[12] = 125 g ai/ha, scale 0 (no effect) to 100 (complete control), visual, 12 to 14 days, preemergence
[13] = 250 g ai/ha, scale 0 to 100 (0 no effect, 100 complete control), visual, 12 to 14 days, preemergence
[14] = Postemergence, 500 g ai/ha, scale 0 to 100
[15] = Postemergence, 250 g ai/ha, scale 0 to 100, 0 no effect, 100 complete control
[16] = 250 g ai/ha, scale 0-100, preemergence
[17] = Preemergence, 125 g ai/ha, scale 0 to 100
[18] = Preemergence, 375 g ai/ha, scale 0 (no effect) to 100 (complete control)
[19] = 62 g ai/ha, preemergence, scale 0 to 100
[20] = 500 g ai/ha, scale 0 to 100 (0 no effect, 100 complete control), visual, 12 to 14 days, preemergence

| Structure (SMILES) | Plant response rating (0 = no effect, 100 = complete control), Morningglory (morningglory; 62 g ai/ha, preemergence) | Plant response rating, Dallisgrass (dallisgrass; [2]) | Plant response rating, Dallisgrass (dallisgrass; [3]) | Plant response rating, Dallisgrass (dallisgrass; [5]) | Plant response rating, Dallisgrass (dallisgrass; [6]) | Plant response rating, Dallisgrass (dallisgrass; [7]) | Plant response rating, Dallisgrass (dallisgrass; [8]) | Plant response rating, Barnyardgrass (barnyardgrass; [2]) | Plant response rating, Barnyardgrass (barnyardgrass; [3]) | Plant response rating, Barnyardgrass (barnyardgrass; [5]) | Plant response rating, Barnyardgrass (barnyardgrass; [6]) | Plant response rating, Barnyardgrass (barnyardgrass; [7]) | Plant response rating, Barnyardgrass (barnyardgrass; [8]) | Plant response rating (0 = no effect, 100 = complete control), Ragweed (common ragweed; 62 g ai/ha, preemergence) | Plant response rating, Morningglory (morningglory; [16]) | Plant response rating, Dallisgrass (dallisgrass; [17]) | Plant response rating, Barnyardgrass (barnyardgrass; [17]) | Plant response rating, Ragweed (common ragweed; [19]) | Plant response rating, Ragweed (common ragweed; [16]) | Plant response rating, Ragweed (common ragweed; [20]) | also measured |
| --- | --- | --- | --- | --- | --- | --- | --- | --- | --- | --- | --- | --- | --- | --- | --- | --- | --- | --- | --- | --- | --- |
| CCNC(=O)c1ccc(F)c(NC(=O)c2cc(C(C)(C)C)nn2CC)c1 [Compound 2, 3-(1,1-dimethylethyl)-1-ethyl-N-[5-[(ethylamino)carbonyl]-2-fluorophenyl]-1H-pyrazole-5-carboxamide] | 5 | 90 | 60 | 95 | 95 | 80 | 75 | 95 | 60 | 100 | 100 | 90 | 80 | 80 |  |  |  |  |  |  | pest or weed control at 250 g/ha (morningglory; Ipomoea, pre-emergence, 250 g ai/ha, scale 0 to 100 (0 no effect, 100 complete control), visual, 12 to 14 days, read-out: Plant response rating, Morningglory): 45%; Morningglory plant response rating (morningglory; [1]): 100; Plant response rating, Dallisgrass (dallisgrass; [4]): 90; pest or weed control at 500 g/ha (giant foxtail; post-emergence, Postemergence, 500 g ai/ha, 0 to 100 scale, 0 no effect, 100 complete control, read-out: Plant response rating, Foxtail, Giant): 95%; pest or weed control at 2000 g/ha (giant foxtail; post-emergence, Postemergence, 2000 g ai/ha, 0 to 100 scale, 0 no effect, 100 complete control, read-out: Plant response rating, Foxtail, Giant): 100%; pest or weed control at 500 g/ha (giant foxtail; pre-emergence, Preemergence, 500 g ai/ha, visual rating, 0 to 100 scale (0 no effect, 100 complete control), read-out: Foxtail, Giant plant response rating): 100%; pest or weed control at 2000 g/ha (giant foxtail; pre-emergence, Preemergence, 2000 g ai/ha, 0 to 100 scale, 0 no effect, 100 complete control, read-out: Foxtail, Giant plant response rating): 100%; Plant response rating, Barnyardgrass (barnyardgrass; [4]): 80; pest or weed control at 250 g/ha (common ragweed; Ambrosia artemisiifolia, pre-emergence, 250 g ai/ha, scale 0 to 100 (0 no effect, 100 complete control), visual, 12 to 14 days, read-out: Plant response rating, Ragweed): 100%; Ragweed plant response rating (common ragweed; [1]): 100 |
| C=Cn1nc(C(C)(C)C)cc1C(=O)Nc1cccc(C(=O)NCC)c1 [Compound 33] | 0 |  |  |  |  |  |  |  |  |  |  |  |  | 0 |  |  |  |  |  |  | Plant response rating, Morningglory (morningglory; [9]): 0; Plant response rating, Morningglory (morningglory; [7]): 30; Plant response rating, Morningglory (morningglory; [10]): 20; Plant response rating, Morningglory (morningglory; [8]): 20; Plant response rating, Foxtail, Giant (giant foxtail; Postemergence, 500 g ai/ha, 0 to 100 scale, 0 no effect, 100 complete control): 70; Plant response rating, Foxtail, Giant (giant foxtail; Postemergence, 2000 g ai/ha, 0 to 100 scale, 0 no effect, 100 complete control): 85; Foxtail, Giant plant response rating (giant foxtail; Preemergence, 500 g ai/ha, visual rating, 0 to 100 scale (0 no effect, 100 complete control)): 80; Foxtail, Giant plant response rating (giant foxtail; Preemergence, 2000 g ai/ha, 0 to 100 scale, 0 no effect, 100 complete control): 95; Plant response rating, Ragweed (common ragweed; [9]): 0; Plant response rating, Ragweed (common ragweed; [7]): 70; Plant response rating, Ragweed (common ragweed; [8]): 60; Plant response rating, Chickweed (chickweed; [11]): 100; Plant response rating, Chickweed (chickweed; postemergence, 16 g ai/ha, scale 0 to 100): 30; Plant response rating, Chickweed (chickweed; [10]): 40; Plant response rating, Chickweed (chickweed; [8]): 90 |
| C#CCn1nc(C(C)(C)C)cc1C(=O)Nc1cccc(C(=O)NCC)c1 [Compound 50] | 0 |  |  |  |  |  |  |  |  |  |  |  |  | 10 |  |  |  |  |  |  | Plant response rating, Morningglory (morningglory; [12]): 0; Plant response rating, Morningglory (morningglory; [13]): 0; Morningglory plant response rating (morningglory; [14]): 10; Plant response rating, Morningglory (morningglory; [15]): 0; Morningglory plant response rating (morningglory; [1]): 0; Plant response rating, Morningglory (morningglory; [8]): 0; Plant response rating, Ragweed (common ragweed; [12]): 40; Plant response rating, Ragweed (common ragweed; [13]): 80; Ragweed plant response rating (common ragweed; [14]): 85; Plant response rating, Ragweed (common ragweed; [15]): 85; Ragweed plant response rating (common ragweed; [1]): 100; Plant response rating, Ragweed (common ragweed; [8]): 80; Chickweed plant response rating (chickweed; [14]): 0; Plant response rating, Chickweed (chickweed; [11]): 0; Plant response rating, Chickweed (chickweed; [15]): 0; Plant response rating, Chickweed (chickweed; [8]): 0 |
| CCc1nn(C(C)(C)C)cc1C(=O)Nc1cc(C(=O)N(C)C)ccn1 [Compound 293] |  |  |  | 95 | 100 |  |  |  |  | 100 | 100 |  |  |  | 100 | 60 | 60 | 85 | 100 | 100 | Plant response rating, Dallisgrass (dallisgrass; [18]): 95; Plant response rating, Barnyardgrass (barnyardgrass; [18]): 100 |
| CCn1nc(C(C)(C)C)cc1C(=O)Nc1cc(C(=S)N(C)C)ccc1F [Compound 294] |  | 60 |  | 80 | 95 | 40 | 10 | 75 |  | 95 | 100 | 60 | 40 |  | 50 | 75 | 95 | 100 | 100 | 100 | Plant response rating, Morningglory (morningglory; [19]): 30; Plant response rating, Morningglory (morningglory; [12]): 30; Plant response rating, Morningglory (morningglory; [20]): 50; Plant response rating, Dallisgrass (dallisgrass; [14]): 70; Plant response rating, Dallisgrass (dallisgrass; [18]): 95; Plant response rating, Barnyardgrass (barnyardgrass; [14]): 80; Plant response rating, Barnyardgrass (barnyardgrass; [18]): 100 |
| CCn1nc(C2(C)CC2)cc1C(=O)Nc1cc(C(=O)N(C)C)ccc1F [Compound 299] |  | 75 | 75 | 100 | 100 | 70 | 50 | 70 | 60 | 95 | 100 | 70 | 40 |  | 100 | 85 | 85 | 100 | 100 | 100 | Plant response rating, Morningglory (morningglory; [19]): 5; Plant response rating, Morningglory (morningglory; [12]): 75; Plant response rating, Morningglory (morningglory; [20]): 100; Plant response rating, Dallisgrass (dallisgrass; [14]): 85; Plant response rating, Barnyardgrass (barnyardgrass; [14]): 80 |
| CCc1nn(C(C)(C)C)nc1C(=O)Nc1cccc(C(=S)N(C)C)c1 [Compound 395] |  |  | 50 | 90 | 90 |  |  |  | 50 | 95 | 95 |  |  |  | 100 | 70 | 60 | 65 | 100 | 100 | Plant response rating, Morningglory (morningglory; [19]): 15; Plant response rating (0 = no effect, 100 = complete control), Morningglory (morningglory; 125 g ai/ha, preemergence): 80; Plant response rating, Morningglory (morningglory; [20]): 100; Plant response rating (0 = no effect, 100 = complete control), Ragweed (common ragweed; 125 g ai/ha, preemergence): 95 |
